Data reported in patent publication US11292773B2, “Small molecule inhibitors of BCL-2-associated death promoter (BAD) phosphorylation” (NATIONAL UNIVERSITY OF SINGAPORE, priority 2017, dated 2022).

Tests used:
[1] = system: MCF7 xenograft; assay: MCF7 xenograft in BALB/c-nu female mice; type: in vivo
Protocol: (A) Measurement of tumour volume in BALB/c-nu female mice as described in materials and methods. Animals (n=5 each group) were treated with vehicle, 5 mg/kg NPB or 20 mg/kg NPB, and relative tumour burden was recorded. Animal weight was measured daily for the duration of the experiment. (B) Tumours were excised after the NPB treatment regime and weighed. Representative resected tumours are shown in the right side. (C) WB of tumour tissue to determine levels of p-BAD (Ser99) and BAD. Soluble whole cell extracts were run on an SDS-PAGE and immunoblotted as described in methodology. β-ACTIN was used as an input control. The sizes of detected protein bands in kDa are shown on the left side. (D) Histological analyses of phospho-BAD, BAD, Ki67 and TUNEL staining. […] Apoptotic DNA fragmentation was detected using TUNEL Apoptosis Detection Kit (Gen Script USA Inc.) as described in methodology. Statistical significance was assessed by an unpaired two-tailed Student's t-test (P<0.05 was considered as significant) using GraphPad Prism5. The point represents mean of triplicate experiments; bars, ±SD. **P<0.001, *P<0.05.
5- to 6-week-old BALB/c-nu female mice were subcutaneously implanted with 17β-estradiol pellets (Innovative Research of America) at 0.72 mg/pellet with a 60-day release in the scruff of the neck after three days mice were injected subcutaneously with 100 μl of cell suspension (1×10^7 cells) in right flanks. Tumour growth was monitored by measuring the tumour size using callipers. About 12 days after implantation, mice were randomized and divided into three groups (each group, n=8), according to treatments administered 200 μl of NPB (dissolved in 5% DMSO, 50% PEG400 and 45% water pH 5.0) by intraperitoneal injection every day for seven days. The first group of mice was treated with vehicle, the second with 5 mg/kg dose of NPB, and the third with 20 mg/kg dose of NPB. Animal weight and tumour volumes were measured daily. After completion tumours were excised, photographed, weighed, and fixed or stored in liquid nitrogen for later analysis. Histological analysis was performed as previously described (30-32).
We examined the in vivo efficacy of NPB in a xenograft (MCF7) of MC. Randomly grouped mice with preformed tumours (volume ˜[…]) were injected intraperitoneally with vehicle or NPB at 5 mg/kg or 20 mg/kg. […] However, the tumour weight of NPB-treated animals was reduced compared to vehicle-treated mice and in a dose-dependent manner (FIG. 17B). We further analysed the effect of NPB on hBAD Ser99 phosphorylation levels in tumour tissue using WB analysis (FIG. 17C).

[2] = system: MCF7 cells; assay: AlamarBlue cell viability assay; type: cell-based; conditions: Homo sapiens, read-out: IC50 (antiproliferative)
Source text: We initially investigated the effect of newly synthesized small molecule compounds against MCF7 cells (ER+ MC cells) using an AlamarBlue® cell viability assay. Among the series of novel small molecule compounds, NPB was identified as an efficacious small molecule compound reducing viability of MCF7 cells compared to vehicle (DMSO) treated cells. […] We next determined the inhibitory concentration 50% (IC50) of NPB in wide-range of carcinoma cell lines including those derived from ER− mammary (BT549, MDA-MB-231), ER+ mammary (MCF7, T47D, and BT474), endometrial (Ishikawa, ECC-1, RL95-2, and AN3), ovarian (SK-OV-3, OVCAR-2, Caov-3, HEY C2, and OVCA433), hepatocellular (Hep3B, H2P, and H2M), colon (HCT116, DLD-1, and Caco-2), prostate (PC3, LNCaP, and DU145) and pancreatic (AsPC-1, BxPC-3) carcinoma. As normal cell controls, we also included immortalized mammary epithelial cells (MCF10A and MCF12A), and immortalized hepatocytes (LO2) in the panel of cell lines.

[3] = molecular target: T1, Human recombinant BAD protein (Homo sapiens, UniProt Q92934); assay: Surface plasmon resonance analysis (BIAcore); type: binding; conditions: SPR
T1 construct: purchased MyBiosource, USA MBS143012
T1 sequence (Q92934 1-168): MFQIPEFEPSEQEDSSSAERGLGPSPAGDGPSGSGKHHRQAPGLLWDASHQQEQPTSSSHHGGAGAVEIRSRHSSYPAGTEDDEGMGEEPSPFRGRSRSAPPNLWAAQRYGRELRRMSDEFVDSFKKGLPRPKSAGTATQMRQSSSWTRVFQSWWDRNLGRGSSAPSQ
Protocol: To provide molecular interaction of the most promising candidate, NPB binding affinity to BAD, we performed surface plasmon resonance (SPR) measurements with immobilized BAD subunit using NPB as the analyte. We know that BAD could bind to BAD subunit in vitro. […] The recombinant BAD was immobilized on CM5 sensor chip. To determine the association and dissociation curves, various concentrations of NPB were injected individually onto the surface of a sensor chip coated with BAD. The overlaid sensorgrams shown in FIG. 14 were analyzed collectively.
Molecular interactions were analyzed based on surface plasmon resonance using a BIAcore-2000 system (BIAcore AB, Uppsala, Sweden). Human recombinant BAD protein (Catalog No. MBS143012, MyBiosource, USA) was immobilized on a sensor chip as described by the manufacturer protocol. To examine the interaction of BAD with NPB, various concentrations of NPB (20 to 100 μM) in the running buffer (HBS-EP, pH 7.4, BIAcore AB) were injected onto the surface of the BAD-immobilized sensor chip with a flow rate of 15 μl/min as per the manufacturer's directions. NPB was allowed to interact with BAD subunit for 2 min for association and dissociation, respectively, after which the sensor chip was regenerated by injecting 1 M NaCl for 2 min before the next injection. Using BIA evaluation software 4.1 (BIAcore AB), the kinetic parameters were such as association and dissociation rate constants (ka and kd), dissociation equilibrium constants (Kd) using a 1:1 binding model with mass transfer. Sensograms obtained were overlaid using BIA evaluation software.

[4] = 5 mg/kg or 20 mg/kg intraperitoneal, daily for seven days, vs vehicle
[5] = histological analysis, vs vehicle
[6] = tumour tissue, western blot, vs control

animal weight [1, 4]: not significantly different | IC50 [2]: 6.5 µM | Kd ([3]; 1:1 binding model with mass transfer, read-out: dissociation equilibrium constants (Kd)): 37.1 µM | kon ([3]; immobilized BAD, NPB 20 to 100 μM, read-out: association rate constant): 1400 M⁻¹ s⁻¹ | koff ([3]; immobilized BAD, NPB 20 to 100 μM, read-out: dissociation rate constant): 0.054 s⁻¹
Compound: O=C(NC1CCCC1)c1cccc(C(c2ccccc2O)N2CCN(c3cccc(Cl)c3Cl)CC2)c1 (stereo not drawn) [NPB, N-cyclopentyl-3-((4-(2,3-dichlorophenyl)piperazin-1-yl)(2-hydroxyphenyl)methyl) benzamide]
tumour volume [1, 4]: significant reduction | tumour weight ([1]; 5 mg/kg or 20 mg/kg intraperitoneal, dose-dependent, vs vehicle): reduced | TUNEL positivity in tumours [1, 5]: significantly increased | p-BAD (Ser99) in tumour specimens (histology) [1, 5]: significantly reduced | percentage of Ki67 positive cells in tumours [1, 5]: significantly decreased | phosphorylation of BAD (at Ser99) in tumour tissue (WB) [1, 6]: significantly inhibited | total levels of BAD protein in tumours (WB) [1, 6]: No change
